What all share (test): Cell growth inhibition assay, breast tumor cell line (Cell Titer Glo)
Holding throughout (format): cell-based
(In general: Cellular ATP, detected with luciferase, serves as a proxy for viable cell number.)

One assay relates to BT474-J4. Conditions: Homo sapiens, 72 h, BT474-J4 (HER2+), 3 days. How it is done: (§1) Human tumor cell lines from hepatocellular carcinoma (HCC), C3A, Hep3B, HepG2, PLC/PRF/5, SNU182, SNU387, SNU398, SNU423, SNU449 and SNU475 were purchased from the ATCC. Human breast tumor cell lines, HCC2218, HCC1419, BT-474, SK-BR-3, UACC893, JIMT-1, MDA-MB-361, HCC202, MDA-MB-175-VII, HCC1569, HCC1937, HCC38, MDA-MB-157, HCC1954, HCC1500, BT483, KPL-1, SUM225 and ZR-75-1 from ATCC, SUM52 and SUM190 from Asterand, PLC (Detroit Mich.), were cultured in RPMI 1640 medium containing 10% FBS; SKBR3-W13 and BT-474-J4 cultured in RPMI 1640 medium containing 10% FBS and 1 μM lapatinib; KPL4 line was kindly provided by Dr Junichi Kurebayashi (Kawasaki Medical School, Okayama, Japan) and cultured in DMEM containing 5% FBS. JIMT-1 from European Collection of Cell Cultures (UK), is a line derived from a patient clinically resistant to trastuzumab (Herceptin®). SK-BR-3-W13 is a single cell clone isolated by a cloning cylinder after a single treatment of SK-BR-3 cells with 0.5 μM lapatinib. BT-474-J4 is a single cell clone derived from a pool of BT-474 cells that were selected to grow in lapatinib to a concentration of 3 μM.
(§2) Cells were seeded in a 96-well tissue culture plate (NUNC 136102) of RPMI medium containing 10% FBS at 500-2,000 cells per well. Approximately 24 hours after plating, cells were exposed to ten, two-fold or three-fold serial dilutions of either Compound A or B or the combination of the two agents at a 2:1 molar ratio (Compounds A and B respectively). In some cases, cells were grown in RPMI media containing 10% FBS and in the presence or absence of 2 ng/mL hepatocyte growth factor (HGF). Cells were incubated in the presence of compounds for 3 days. ATP levels were determined by adding Cell Titer Glo® (Promega) according to the manufacturer's protocol. Briefly, Cell Titer Glo® was added to each plate, incubated for 20 minutes then luminescent signal was read on the SpectraMax L plate reader with a 0.5 sec integration time. All assays were run at least in duplicate.
(§3) Inhibition of cell growth was estimated after treatment with compound or combination of compounds for three days and comparing the signal to cells treated with vehicle (DMSO). Cell growth was calculated relative to vehicle (DMSO) treated control wells. Concentration of compound that inhibits 50% of control cell growth (IC50) was back-interpolated when y=50% of DMSO treated control wells using nonlinear regression with the equation: […]
(§4) where A is the minimum response (ymin), B is the maximum response (Ymax), C is the inflection point of the curve (EC50) and D is the Hill coefficient.
(§5) Combination effects on potency were evaluated using the Combination Index (CI) and Excess Over Highest Single Agent (EHOSA) methods.
(§6) DNA Copy number data on the HER2 gene was collected for all breast cancer cell lines using the Affymetrix 500K chip (Affymetrix Inc, Sunnyvale, Calif.). Briefly DNA was extracted from each line, digested with the restriction enzyme Nsp or Sty, ligated to an adaptor and amplified by PCR. After PCR, DNA was fragmented, labeled, denatured, and hybridized to the Affymetrix 500K chip. Upon completion of hybridization, each assay was washed and stained. Image data were acquired. Similarly collected data from a panel 10 diploid non-tumorigenic lymphoblastic cell lines were used to calculate DNA copy number. All ‘SNP Chip’ images ('CEL files'), were extracted, read and normalized using the dChip software package (Lin et al. 2004. Bioinformatics. 20:1233-40). SNP-wise ‘copy-number ratios’ (log2 scale) were calculated for all cancer cell lines using the lymphoblastic reference panel and analyzed by circular binary segmentation to reduce noise (Olshen et al. 2004. Biostatistics. 5:557-72). Cell lines with log2 ratios of HER2>0.65 were considered HER2+.

The subject of the next assay is BT474. The note with it: Homo sapiens, BT-474, 72 h, BT474 (HER2+), 3 days. How it is done: as §1, §2, §3, §4, §5, §6
The subject of the next assay is HCC1419. Conditions: Homo sapiens, 72 h, HCC1419 (HER2+), 3 days. Here is the method: as §1, §2, §3, §4, §5, §6
The next assay concerns HCC1500. The note with it: Homo sapiens, 72 h, HCC1500 (HER2−), 3 days. Here is the method: as §1, §2, §3, §4, §5, §6
A further assay deals with HCC1937. Conditions: Homo sapiens, 72 h, HCC1937 (HER2−), 3 days. Here is the method: as §1, §2, §3, §4, §5, §6
The next assay concerns HCC202. The note with it: Homo sapiens, 72 h, HCC202 (HER2+), 3 days. Here is the method:
as §1, §2, §3, §4, §5, §6

Another assay deals with HCC2218. The note with it: Homo sapiens, 72 h, HCC2218 (HER2+), 3 days. How it is done:
as §1, §2, §3, §4, §5, §6

The next assay deals with HCC38. The note with it: Homo sapiens, 72 h, HCC38 (HER2−), 3 days. How it is done: as §1, §2, §3, §4, §5, §6
The subject of another assay is JIMT-1. Conditions: Homo sapiens, 72 h, JIMT-1 (HER2+), 3 days. Here is the method: as §1, §2, §3, §4, §5, §6
The test system of a further assay is MDA-MB-175-VII. The note with it: Homo sapiens, 72 h, MDA-MB-175-VII (HER2−), 3 days. How it is done:
as §1, §2, §3, §4, §5, §6

The next assay concerns MDA-MB-361. Conditions: Homo sapiens, 72 h, MDA-MB-361 (HER2+), 3 days. How it is done: as §1, §2, §3, §4, §5, §6
For the next assay, the system named is SUM190. The note with it: Homo sapiens, 72 h, SUM190 (HER2+), 3 days. How it is done:
as §1, §2, §3, §4, §5, §6

The subject of a further assay is SUM225. Conditions: Homo sapiens, 72 h, SUM225 (HER2+), 3 days. How it is done:
as §1, §2, §3, §4, §5, §6

[1] abbreviates: read-out: Single agent IC50, Compound A.
Where [2] appears, read: read-out: Single agent IC50, Compound B.

Like-named read-outs stand apart in the source and are kept apart here. Where only a bound is given, the exact number is not on record here.

The IC50 is the point on the concentration scale where inhibition reaches its midpoint. With `CC(=O)Nc1cccc(-n2c(=O)n(C3CC3)c(=O)c3c(Nc4ccc(I)cc4F)n(C)c(=O)c(C)c32)c1` [Compound A, N-{3-[3-cyclopropyl-5-[(2-fluoro-4-iodophenyl)amino]-6,8-dimethyl-2,4,7-trioxo-3,4,6,7-tetrahydropyrido[4,3-d]pyrimidin-1(2H)-yl]phenyl}acetamide], the IC50 with BT474-J4 (setting [1]), in the assay on BT474 (setting [1]), in the assay on HCC1419 (setting [1]), in the assay on HCC1500 (setting [1]), in the assay with HCC1937 (setting [1]) and in the assay on HCC202 (setting [1]) was over 1000 nM throughout. In addition, the IC50 in the assay on HCC2218 (setting [1]) was over 1000 nM; in the assay with HCC38 (setting [1]) it was over 1000 nM; in the assay on JIMT-1 (setting [1]), over 1000 nM; with MDA-MB-175-VII (setting [1]), 99 ± 97 nM; in the assay on MDA-MB-361 (setting [1]), over 1000 nM; in the assay with SUM190 (setting [1]) it was over 1000 nM. In addition, the IC50 in the assay on SUM225 (setting [1]) is over 1000 nM.
On to `COc1ncc(-c2ccc3nccc(-c4ccnnc4)c3c2)cc1NS(=O)(=O)c1ccc(F)cc1F` [Compound B, 2,4-difluoro-N-{2-(methyloxy)-5-[4-(4-pyridazinyl)-6-quinolinyl]-3-pyridinyl}benzenesulfonamide], for which the IC50 in the assay with BT474-J4 (setting [2]) is 14 ± 8 nM; in the assay on BT474 (setting [2]), 30 ± 7 nM; in the assay on HCC1419 (setting [2]), 24 ± 14 nM; in the assay on HCC1500 (setting [2]) it was 61 ± 36 nM; with HCC1937 (setting [2]), 114 ± 63 nM; in the assay on HCC202 (setting [2]) it was 45 ± 4 nM. Besides, the IC50 in the assay with HCC2218 (setting [2]) stood at 18 ± 13 nM; in the assay with HCC38 (setting [2]), 95 ± 34 nM; in the assay on JIMT-1 (setting [2]), 28 ± 5 nM; with MDA-MB-175-VII (setting [2]) it was 7 ± 1 nM; with MDA-MB-361 (setting [2]) it was 9 ± 2 nM; in the assay with SUM190 (setting [2]) it was 6 ± 3 nM. Also, the IC50 with SUM225 (setting [2]) stood at 13 ± 14 nM.

The record behind these values is patent US20120245180A1, “COMBINATION” (GlaxoSmithKline LLC, priority 2009, published 2012).
